Laboratory results reported in PMC12027554, “Inhibition of ABCG2 by SCO-101 Enhances Chemotherapy Efficacy in Cancer” (International Journal of Molecular Sciences, 2025).
Values belong to the compound of their own block, whether it stands above or below them.

Key:
HT29SN-38 cells [1] = test: 3H-SN-38 uptake in cell monolayers; format: cell-based, human; details: HT29SN-38 monolayers; for cellular accumulation of 3H-SN-38: SCO-101 25 µM, Ko-143 0.5 µM, ZSQ 0.5 µM, vs control (HBSS)
Method: Cells were seeded at a density of 1.8 × 10^4 cells/well in 96-well plates and sub-cultured for 48 h. Drugs were dissolved in HBSS transport buffer (HBSS, 0.05% BSA, 10 mM HEPES, pH 7.4) at different concentrations. All treatments were investigated in technical triplicates. On the day of the experiments, the culture medium was exchanged with 100 μL transport buffer and cells incubated for 15 min at 37 °C. Next, the blank transport buffer was exchanged with 50 μL transport buffer containing the different compounds (2X of final concentrations) and incubated for an additional 15 min at 37 °C. The uptake experiment was started by adding 50 μL of 2 μCi/mL ^3H-SN38 and stopped after 15 min of incubation at 37 °C by removing the transport buffer from all wells. Cell monolayers were washed twice by adding/removing ice-cold transport buffer and lysed for 15 min at RT in 100 μL 0.1% TritonX-100. Cell lysates were transferred to scintillation vials containing 2 mL of scintillation fluid (Ultima Gold, PerkinElmer). Each well was washed with 100 μL purified water (milliQ), which was also transferred to respective scintillation vials. The radioactivity in each scintillation vial was measured by means of scintillation counting (Tri-Carb 2910 TR, PerkinElmer, Waltham, MA, USA).

HT29SN-38 cells [2] = test: Cellular dye efflux assay (Hoechst 33342), resistant cells; format: cell-based, human; details: SCO-101 20 µM, Ko-143 1 µM, PSC833 1 µM
Method: (§1) Twenty-four hours before the experiments, cells were seeded into 96-well Nunclon^TM plates at a density of 6000 (HT29), 7000 (PANC-1) or 8000 (LoVo) cells/well. The following day, cells were treated in triplicate with the relevant drugs at the indicated concentrations for 1 h. Next, 5 μg/mL Hoechst 33342 was added to the wells, and plates incubated at 37 °C for 30 min^−1 h. Cells were washed with cold PBS, treatments re-added and plates re-incubated at 37 °C for 30 min to 1 h. Plates were analyzed using a Celigo® (Nexcelom Bioscience, Lawrence, MA, USA) imaging cytometer. Data are expressed as percentages of fluorescence intensity, calculated through the following formula: % fluorescence intensity=Mean fluorescence intensity of sample/Mean fluorescence intensity of parental control×100
(§2) Fluorescent images were captured with an Olympus® IX71/TH4-200 microscope equipped with an Olympus® DP72 camera (Shinjuku, Tokyo, Japan), and cells were seeded at a 1.5 × 10^5 cells/well density and treated as described above.

HT29PAR cells [3] = test: Cellular dye efflux assay (Hoechst 33342), parental cells; format: cell-based, human; details: SCO-101 20 µM, Ko-143 1 µM
Method: as §1, §2

HT29PAR cells [4] = test: Cell viability assay (MTT / CCK-8), drug-sensitive HT29; format: cell-based, human
Method: (§3) Cells were seeded at a density of 0.2–1 × 10^4 cells/well into 96-well plates. One day after seeding, treatments were performed in triplicate for 72 h, or as otherwise indicated in the relevant panel/figure legend and kept at 37 °C/5% CO2. Growth medium alone (“untreated” cells) or DMSO was used as a control.
(§4) For MTT assays, media were replaced at the final timepoint with 100 μL of 1:10 MTT reagent (0.5 mg/mL in PBS) diluted in growth medium, and plates were incubated for 3 h. A total of 100 μL/well of stop buffer (50 g Sodium Dodecyl Sulfate, 245 mL ddH2O, 5 mL 1N HCl) was added and plates incubated for 24 h to let colored formazan crystals develop. Optical densities (ODs) were measured with a PowerWave^TM Microplate spectrophotometer (BioTek, Winooski, VT, USA) at 570 nm and 670 nm (background).
(§5) For CCK-8 assays, 100 μL of 1:10 CCK-8 reagent (pevonedistat-treated HT29 cells) diluted in medium was added to each well and cells incubated for 1–2 h at 37 °C. OD values were measured at 450 nm with a VersaMax microplate spectrophotometer (Molecular Devices, San Jose, CA, USA).
(§6) Background values were subtracted prior to further analysis. The percentage of cell viability was expressed as relative values versus untreated cells as determined by the various assays. EC50/IC50 values were calculated using GraphPad Prism (v10.4.1) and the in-built non-linear regression [log (inhibitor) vs. response—variable slope (four parameters)] calculation. For determination of synergy scores, the online tool SynergyFinder+ (https://synergyfinder.org access date 15 February 2025) was employed following 4 × 4- or 6 × 6-matrix dose-escalation cell viability experiments. Doses of drugs are indicated in the relevant figure legends and ranges have been chosen based on the response of cells to single-drug dose-dependent experiments. Synergy scores were calculated using the ZIP model, which takes the advantages of both the Loewe additivity and the Bliss independence models, aiming at a systematic assessment of various types of drug interaction patterns that may arise in a high-throughput drug combination screening.

HT29SN-38 cells [5] = test: Cell viability assay (MTT / CCK-8), SN-38-resistant HT29; format: cell-based, human
Method: as §3, §4, §5, §6

HL-60PAR cells = test: Cell viability assay, HL-60 parental; format: cell-based; details: Homo sapiens, 96 h
Method: as §3, §6

HL-60ABCG2 cells = test: Cell viability assay, ABCG2-expressing HL-60; format: cell-based; details: Homo sapiens, 96 h
Method: as §3, §6

Structure (SMILES): COc1ccc2c3c([nH]c2c1)[C@H](CC(C)C)N1C(=O)[C@H](CCC(=O)OC(C)(C)C)NC(=O)[C@@H]1C3 [Ko-143]
cellular accumulation of 3H-SN-38 (HT29SN-38 cells [1]): increased | EC50 (HT29SN-38 cells [1]; read-out: EC50, 3H-SN-38 uptake (regarded as IC50 of ABCG2 inhibition)): 70 nM | H33342 dye accumulation (HT29SN-38 cells [2]): restored | H33342 dye accumulation (HT29PAR cells [3]): No change

Structure (SMILES): C/C=C/C[C@@H](C)C(=O)[C@H]1C(=O)N[C@@H](C(C)C)C(=O)N(C)CC(=O)N(C)[C@@H](CC(C)C)C(=O)N[C@@H](C(C)C)C(=O)N(C)[C@@H](CC(C)C)C(=O)N[C@@H](C)C(=O)N[C@H](C)C(=O)N(C)[C@@H](CC(C)C)C(=O)N(C)[C@@H](CC(C)C)C(=O)N(C)[C@@H](C(C)C)C(=O)N1C [PSC833]
H33342 dye accumulation (HT29SN-38 cells [2]): No change

IC50 (HT29PAR cells [4]; 72 h): 160 nM | IC50 (HT29SN-38 cells [5]; 72 h): 7290 nM
Structure (SMILES): CCc1c2c(nc3ccc(O)cc13)-c1cc3c(c(=O)n1C2)COC(=O)[C@]3(O)CC [SN-38, reference compound]
cell viability after 24 h single treatment and drug washout (HT29SN-38 cells [5]; SCO-101 15 μM or SN-38 0.5 μM alone, washout 48 h or 120 h): did not affect cell viability

Structure (SMILES): O[C@@H](COc1cccc2ncccc12)CN1CCN([C@@H]2c3ccccc3[C@@H]3[C@H](c4ccccc42)C3(F)F)CC1 [ZSQ]
cellular accumulation of 3H-SN-38 (HT29SN-38 cells [1]): did not alter

Structure (SMILES): O=C1c2c(O)ccc(O)c2C(=O)c2c(NCCNCCO)ccc(NCCNCCO)c21 [mitoxantrone]
IC50 (HL-60PAR cells): 40 nM | IC50 (HL-60ABCG2 cells): 580 nM

IC50 (HT29PAR cells [4]; Homo sapiens, HT-29, 72 h): 130 nM | IC50 (HT29SN-38 cells [5]; Homo sapiens, HT-29, 72 h): 3230 nM | IC50 (HL-60ABCG2 cells): > 1000 nM
Structure (SMILES): NS(=O)(=O)OC[C@@H]1C[C@@H](n2ccc3c(N[C@H]4CCc5ccccc54)ncnc32)C[C@@H]1O [pevonedistat]
IC50 (HL-60PAR cells): 5.4 nM

IC50 (HT29PAR cells [4]; Homo sapiens, HT-29, 72 h): 60 nM | IC50 (HT29SN-38 cells [5]; Homo sapiens, HT-29, 72 h): 1360 nM | IC50 (HL-60ABCG2 cells): > 1000 nM
Structure (SMILES): CC[C@@]1(O)C(=O)OCc2c1cc1n(c2=O)Cc2cc3c(CN(C)C)c(O)ccc3nc2-1 [topotecan]
